This is an account of results in publication PMC8312697, “Mechanistic Investigations Support Liver Safety of Ubrogepant” (Toxicological Sciences, 2020).

One data set addresses T1, NTCP (Homo sapiens, UniProt Q14973).
T1 construct: expressed in transfected cells; host or cells: CHO (telcagepant); HEK293 (ubrogepant, MK-3207)
T1 sequence (Q14973 1-349): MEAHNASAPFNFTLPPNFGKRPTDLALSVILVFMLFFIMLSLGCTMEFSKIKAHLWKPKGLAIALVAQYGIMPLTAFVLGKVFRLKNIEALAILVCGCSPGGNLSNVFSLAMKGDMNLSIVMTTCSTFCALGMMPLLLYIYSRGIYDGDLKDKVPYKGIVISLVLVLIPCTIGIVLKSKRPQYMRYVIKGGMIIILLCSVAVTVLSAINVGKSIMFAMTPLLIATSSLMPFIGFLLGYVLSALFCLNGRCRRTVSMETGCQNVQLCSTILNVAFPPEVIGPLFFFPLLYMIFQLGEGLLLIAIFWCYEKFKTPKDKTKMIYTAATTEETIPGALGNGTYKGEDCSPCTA
As to the kind of experiment: NTCP uptake transporter inhibition assay. Format: cell-based. The following applies: for inhibition of NTCP-mediated probe substrate transport: uptake transporter inhibition assay. How it is done: To assess the functional impact of ubrogepant on the human ABC efflux transporters BSEP, MRP3, and MRP4, in vitro vesicular transport inhibition assays were conducted by Solvo Biotechnology (Szeged, Hungary). The ability of ubrogepant to inhibit the BSEP-mediated transport (and accumulation) of a probe substrate was tested at concentrations ranging from 0.04 – 30 μM, where the latter defined the upper limit of compound solubility in the BSEP assay buffer. For the MRP3 and MRP4 vesicle-based transporter assessments, ubrogepant concentrations of 0.1 to 70 μM were used. To assess the functional impact of ubrogepant on the human SLC (uptake) transporter NTCP, in vitro experiments were performed using HEK293 cells stably expressing NTCP. The ability of ubrogepant to inhibit NTCP-mediated uptake (and accumulation) of taurocholate was tested at concentrations ranging from 0.04 – 30 μM.
To assess the functional impact of MK-3207 on the human ABC efflux transporters BSEP, MRP3 and MRP4, in vitro vesicular transport inhibition assays were conducted by Solvo Biotechnology (Szeged, Hungary) and overseen by DSSI. BSEP transport was assessed in the presence of 0.5-30 µM MK-3207; MRP3 and MRP4 transport was assessed in the presence of 0.11-80 µM MK-3207. The upper limits of these ranges were determined by compound solubility in each assay buffer. NTCP transporter inhibition was assessed in NTCP-expressing HEK293 cells in the presence of 0.03 – 25 µM MK-3207.

The next data set deals with HepG2 cell. Nature of the data set: HepG2 cell glucose/galactose shift model. Format: cell-based, human.
Another data set has as its target T2, CGRP receptor (Homo sapiens, UniProt O60894+Q16602).
T2 construct: expressed in transfected cells; host or cells: HEK293
Nature of the data set: CGRP-stimulated cAMP response in HEK293 cells. It is filed as cell-based. To be noted: read-out: Potency IC50.

The next data set deals with dog. Nature of the data set: Conventional nonclinical toxicology study, dog. To be noted: 1M dog.

T2 sequence (Q16602 23-461): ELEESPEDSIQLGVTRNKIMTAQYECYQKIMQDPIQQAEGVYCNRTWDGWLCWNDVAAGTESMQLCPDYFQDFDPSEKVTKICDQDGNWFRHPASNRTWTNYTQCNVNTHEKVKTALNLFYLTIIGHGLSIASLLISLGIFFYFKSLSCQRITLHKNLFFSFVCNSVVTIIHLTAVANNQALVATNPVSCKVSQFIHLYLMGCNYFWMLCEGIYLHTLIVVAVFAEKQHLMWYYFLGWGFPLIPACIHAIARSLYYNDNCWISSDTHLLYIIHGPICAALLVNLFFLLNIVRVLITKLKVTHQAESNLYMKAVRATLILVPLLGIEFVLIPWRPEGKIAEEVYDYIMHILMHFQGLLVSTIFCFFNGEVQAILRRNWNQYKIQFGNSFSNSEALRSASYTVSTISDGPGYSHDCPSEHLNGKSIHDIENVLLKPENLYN
T2 sequence (O60894 27-148): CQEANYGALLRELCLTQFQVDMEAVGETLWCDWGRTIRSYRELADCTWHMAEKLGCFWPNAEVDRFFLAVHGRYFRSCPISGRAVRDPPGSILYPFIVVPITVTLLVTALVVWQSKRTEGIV

`O=C(N[C@@H]1CC[C@@H](c2cccc(F)c2F)CN(CC(F)(F)F)C1=O)N1CCC(n2c(=O)[nH]c3ncccc32)CC1` [Telcagepant]: on NTCP (CHO cells expressing NTCP, up to 25 μM), the NTCP inhibition is reported as above 50%. Further, the IC50 at NTCP (taurocholate uptake, read-out: NTCP estimated IC50) is 19400 nM. The “inhibition of NTCP-mediated probe substrate transport” value on NTCP was “inhibited”. Moreover, the mitochondrial toxicity potential entry in the data set with HepG2 cell is given as “did not raise mitochondrial safety concerns”.
With `O=C(CN1C(=O)C2(CCCC2)NC[C@H]1c1cc(F)cc(F)c1)Nc1ccc2c(c1)C[C@@]1(C2)C(=O)Nc2ncccc21` [MK-3207], the IC50 on CGRP receptor stood at 0.12 nM. Besides, on NTCP, the “inhibition of NTCP-mediated probe substrate transport” value is recorded as “No inhibition was observed”. In the data set on dog, the “Pivotal conventional nonclinical toxicology study liver findings” value is listed as “slight periportal vacuolation with < 4× ALT/AST associated with excessive body weight loss” and the exposure margin came to 17 ×. Also, the mitochondrial toxicity potential result in the data set on HepG2 cell is on record as “did not raise mitochondrial safety concerns”.
With `C[C@@H]1[C@H](c2ccccc2)C[C@H](NC(=O)c2cnc3c(c2)C[C@@]2(C3)C(=O)Nc3ncccc32)C(=O)N1CC(F)(F)F` [Ubrogepant], on CGRP receptor, the 50% inhibitory concentration (IC50) was 0.08 nM.

What is called IC50 is the concentration needed to halve the response being measured.
